{"source": "patent US20110143960A1", "about": "“3D-MODELS FOR HIGH-THROUGHPUT SCREENING DRUG DISCOVERY AND DEVELOPMENT” (priority 2009, published 2011)", "key": {"MDA-MB-231 spheroids [1]": {"system": "MDA-MB-231 spheroids", "assay": "Modified Boyden chamber cell invasion assay of cells dissociated from spheroids", "assay_type": "cell-based", "details": "control modulators, 72 h treatment, 24 h invasion, FIG. 6", "procedure": "Spheroids were treated as in the primary assay. Following treatment, each sample group was disassociated into single cell suspensions and seeded into invasion chambers followed by a 24 h incubation period. VimPro-Fluc-MDA-MB-231 spheroids were treated with control EMT modulators as described using 15 spheroids per sample group. The spheroids for each sample group were pooled into 1.5 ml, micro tubes and collected by centrifugation at 10,000 rpm for 10 min at room temperature.\nEach sample group was then treated with 200 μL of spheroid dissociation solution (0.25% trypsin-EDTA) and incubated at 37° C. for 30 min. Single cell suspensions of each group in RPMI-1640 medium containing 0.1% BSA were seeded at 35,000 cells/chamber (50 μL) into the top chambers of a 96-well invasion plate (BD Biosciences; Bedford, Mass.) previously coated with 50 μL of […]™ (40 μg/mL protein in RPMI-1640 medium). Chemoattractant (10%\nFBS in RPMI-1640 medium, 150 μL) was added to each bottom chamber and the plate was incubated (37° C., 5% CO2) for 24 h. Following incubation the insert was removed and the medium aspirated from both top and bottom chambers. […] Each side of the membrane insert was washed 2× by adding 200 μL PBS-CMF (Ca/Mg free) to the bottom chamber, replacing the insert and adding 50 μL PBS-CMF to the top chamber. The PBS-CMF was removed and the invading cells were fixed with 200 μL of 4% paraformaldahyde in the bottom chambers at 37° C. for 15 min. The insert was washed 2× with PBS-CMF as described above. The invading cells were subsequently stained with 200 μL of DAPI (3 μg/mL) in PBS-CMF for 30 min at room temperature and washed 4×, as described above, in 15 min intervals. Invading cells were quantified using five random fields per filter insert in triplicate at 20× magnification using a fluorescent microscope equipped with metamorph image analysis and quantification software (Molecular Devices; Downingtown, Pa.)."}, "[2]": {"system": "VimPro-Fluc-MDA-MB-231 cells", "assay_type": "cell-based", "details": "VimPro-Fluc-MDA-MB-231 monolayer, 72 h", "procedure": "(§1) A 2D-screen was conducted with small molecule antitumor agents, growth factors or antibodies (FIG. 2B). All cells were cultured in 100 mm tissue culture dishes in RPMI-1640 supplemented with 10% FBS and maintained in a 5% CO2 incubator at 37° C. VimPro-Fluc-MDA-MB-231 and VimPro-Fluc-PMC42-LA were seeded at 5,000 cells/well into 96-well white plates and incubated overnight for 16 h. VimPro-Fluc-PMC42-LA and VimPro-Fluc-MDA-MB-231 cells were treated for 72 h. The treatment medium was replaced with 50 μL fresh medium, then 50 μL of One-Glo Luciferase reagent and incubated at room temperature for 10 min. Luminescence was recorded with an integration time of 1 sec/well using a luminescence microplate reader."}, "[3]": {"system": "VimPro-Fluc-PMC42-LA cells", "assay_type": "cell-based", "details": "VimPro-Fluc-PMC42-LA monolayer, 10 ng/mL EGF, 72 h", "procedure": "as §1"}, "[4]": {"system": "VimPro-Fluc-MDA-MB-231 spheroids", "assay": "Live 3D-spheroid vimentin expression assay (VimPro-Fluc, DMNPE-caged luciferin)", "assay_type": "cell-based", "details": "read-out: IC50 vimentin expression, dose response", "method": "Uniform single-spheroids of MDA-MB-231 and VimPro-Fluc-MDA-MB-231 breast carcinoma cells were cultured in 96-well flat bottom plates coated with 50 μL of a 1.5% agarose (weight/volume) solution in serum free RPMI-1640 (no phenol red) medium (freshly autoclaved at 121° C. for 15 min). During the coating process the agarose/RPMI-1640 solution was maintained at >60° C. followed by cooling and setting at room temperature for 40 min. Cells were plated at a density of 10,000 cells/well in 50 μL of RPMI-1640 (10% FBS, no phenol red) and centrifuged at 1,000 rpm for 15 min to induce cell aggregation. […]\nVimPro-Fluc-MDA-MB-231 spheroids were cultured in 96-well optical bottom white plates and treated as described above. On day 8, after 72 h treatment with control EMT modulators, live spheroid vimentin expression was measured by adding 10 μL (final 12.5 μM) of DMNPE-caged luciferin to each well and incubating at 37° C., 5% CO2 for 2 h.\nUniform single spheroids were cultured in 96-well optical bottom white plates as described above and treated on day 5. […] After 72 h, vimentin expression was measured by adding 10 μL (final 12.5 μM) of DMNPE-caged luciferin to each well and incubated for 2 h (37° C., 5% CO2). Luminescence was recorded with an integration time of 1 second/well (FIG. 9A-D)."}, "[5]": {"system": "vimentin in MDA-MB-231 spheroids", "assay": "Immunofluorescent vimentin staining of whole and sectioned spheroids (confocal)", "assay_type": "cell-based", "details": "whole spheroid, outer surface / peripheral layer; U0126 10 μM 72 h", "method": "Confocal 3D imaging emphasizes a surface edge of MDA-MB-231 spheroids untreated or treated with (10 μM) U0126 for 72 hours.\nSpheroids were fixed with 50 μL of 3.7% formaldehyde for 10 min at room temperature. They were then washed once with PBS and 50 μL of 0.2% Triton X-100 in PBS (v/v) were added for 10 min at room temperature to permeate cells. Next they were blocked with 50 μL of cell culture medium (10% FBS) for 1 h at room temperature. Blocking medium was then aspirated and sphroids were treated with mouse anti-vimentin at 1:100 in TBST containing 20% cell culture medium (v/v) with shaking at 4° C. overnight. They were then washed (3×TBST) and stained with FITC green fluorescent conjugated goat anti-mouse secondary antibody at 1:1,000 and with DAPI (4′,6-diamidino-2-phenylindole) at 1:1,000 in TBST containing 20% cell culture medium (v/v) for 1 h at room temperature and washed with TBST 4×. After fixing with formaldehyde, some spheroids were sectioned using a Leica CM 1950 cryostat (Leica Microsystems; Germany) with thickness of 10 μm. Spheroid sections were washed with PBS and stained as described above. Spheroid sections on slides were covered with mounting medium and cover slips. Imaging of whole spheroids was done with an UltraVIEW® VoX 3D confocal microscope (Perkin Elmer) using a 20× objective. Spheroid sections were imaged using a Nikon D-Eclipse Cl confocal microscope system (Nikon Instruments Inc; Melville, N.Y.).\nVimentin expression in VimPro-Fluc-MDA-MB-231 spheroids was further assessed by immunofluorescent staining of whole spheroids treated with U0126."}, "MDA-MB-231 cells": {"system": "MDA-MB-231 cells", "procedure": "(§2) Cell lines were cultured as monolayers in 96-well microplates and treated with U0126, the specific inhibitor of mitogen-activated protein kinase kinase (MEK1)."}, "[6]": {"system": "EGF-treated PMC42-LA cells", "procedure": "as §2"}, "MDA-MB-231 spheroids [7]": {"system": "MDA-MB-231 spheroids", "assay": "Spheroid viability, APH assay multiplexed after vimentin readout", "assay_type": "cell-based", "details": "for spheroid death (control of APH assay): 10% Triton X-100, 2 h prior to APH analysis", "procedure": "Cell Viability To support the primary assay hit validation, two cell viability assays have been developed: the acid phosphatase assay (APH) and the cell-titer-glow (Promega®). Both assays give robust reproducible results in both 2D and 3D cell culture. We can also multiplex these assays using live VimPro-Fluc stable 3D-spheroids (FIG. 5). On day 8, vimentin expression was measured (luminescence as RLU/s), using a live cell permeable luciferin reagent, followed by multiplexing with the APH assay (OD405). […] Thus, downregulation of VimPro-Fluc activity by the control modulators is not due to spheroid death.\nUniform single spheroids were cultured in 96-well optical bottom white plates as described above and treated on day 5. To avoid edge effects the outer wells were unused and filled with sterilized water. 15 μL of controls and marine natural products were added to each well at final concentrations described above. After 72 h, vimentin expression was measured by adding 10 μL (final 12.5 μM) of DMNPE-caged luciferin to each well and incubated for 2 h (37° C., 5% CO2). Luminescence was recorded with an integration time of 1 second/well (FIG. 9A-D). Directly following the primary assay measuring vimentin expression, spheroid viability was multiplexed using the APH assay. Hits were confirmed using the cell invasion assay (FIG. 9E)."}}, "note": "“Also recorded” adds a separate entry of the source. Read-outs that look alike come from different tables or passages of the source."}
{"molecule": "C[C@@H](Oc1cc(-c2cnn(C3CCNCC3)c2)cnc1N)c1c(Cl)ccc(F)c1Cl", "note": "[PF2341066, PF-2341066]", "values": [{"measurement": "inhibition of invasive potential vs untreated spheroids", "setting": "MDA-MB-231 spheroids [1]", "result": "about 90%"}, {"measurement": "invasive potential of MDA-MB-231 spheroids (in words)", "setting": "MDA-MB-231 spheroids [1]", "result": "significant inhibition"}]}
{"molecule": "COc1cc2ncnc(Nc3cccc(Cl)c3)c2cc1OC", "note": "[AG1478]", "values": [{"measurement": "vimentin expression", "setting": "[2]", "result": "no statistically significant effect"}, {"measurement": "EGF-induced EMT (vimentin upregulation)", "setting": "[3]", "result": "significantly inhibited"}]}
{"molecule": "CNC(=O)c1ccccc1Sc1ccc2c(/C=C/c3ccccn3)n[nH]c2c1", "note": "[Axitinib]", "values": [{"measurement": "IC50", "setting": "[4]; VimPro-Fluc spheroids, FIG. 8B", "result": 250, "unit": "nM"}]}
{"molecule": "CO[C@@H]1[C@H](N(C)C(=O)c2ccccc2)C[C@H]2O[C@]1(C)n1c3ccccc3c3c4c(c5c6ccccc6n2c5c31)C(=O)NC4", "note": "[PKC412]", "values": [{"measurement": "invasive potential of MDA-MB-231 spheroids (in words)", "setting": "MDA-MB-231 spheroids [1]", "result": "significant inhibition"}]}
{"molecule": "N#CC(=C(/N)Sc1ccccc1N)/C(C#N)=C(\\N)Sc1ccccc1N", "note": "[U0126]", "values": [{"measurement": "vimentin protein expression by immunofluorescence", "setting": "[5]", "result": "overall vimentin downregulation; also recorded: Significant downregulation of vimentin protein expression; also recorded: repression of Vimentin expression"}, {"measurement": "IC50", "setting": "[4]", "result": 2500, "unit": "nM"}, {"measurement": "invasive potential", "setting": "MDA-MB-231 cells", "result": "significantly diminished"}, {"measurement": "invasive potential", "setting": "[6]", "result": "significantly diminished"}, {"measurement": "inhibition of invasive potential vs untreated spheroids", "setting": "MDA-MB-231 spheroids [1]", "result": "about 90%"}, {"measurement": "invasive potential of MDA-MB-231 spheroids (in words)", "setting": "MDA-MB-231 spheroids [1]", "result": "significant inhibition"}, {"measurement": "vimentin expression", "setting": "[2]", "result": "significant downregulation of vimentin expression"}, {"measurement": "EGF-induced EMT (vimentin upregulation)", "setting": "[3]", "result": "significantly inhibited"}]}
{"molecule": "COc1c(OC)c2c(c(CCN(C)C)c1SC)Sc1c(CCN(C)C)c(SC)c(OC)c(OC)c1S2", "note": "[lissoclinotoxin E]", "values": [{"measurement": "spheroid viability vs untreated spheroids on day 5", "setting": "MDA-MB-231 spheroids [7]; marine natural product hits, 10 μM, 72 h, APH assay", "result": "exception; also recorded: statistically significant decrease in spheroid viability"}]}
{"molecule": "Triton X-100", "values": [{"measurement": "spheroid death (control of APH assay)", "setting": "MDA-MB-231 spheroids [7]", "result": "significantly induces spheroid death"}, {"measurement": "spheroid death (control of APH assay)", "setting": "MDA-MB-231 spheroids [7]; listed as Triton-X-100", "result": "significantly induced spheroid death"}]}
